Assay: Measurement of photo-decomposability of the compound in ethyl acetate solution (absorbance before/after UV exposure)
Assay type: physicochemical
Details: 5.0×10^−5 mol/L in ethyl acetate
Method: The absorbance thereof was measured with an absorption photometer (Multichannel Detector PMA 11, trade name, manufactured by Hamamatsu Photonics K.K.). […] After this solution was exposed for 20 seconds by means of a fluorescent lamp of 23 watts having the central wavelength of light emission at 365 nm, which was placed at a distance of 45 mm, the absorbance thereof was measured in the same manner as the above.

OCCCCCCOc1cccn(OCCCCCCO)c1=S [I-1]
absorbance at 370 nm before exposure (1-cm quartz cell, before exposure): 0.64 | absorbance at 370 nm after exposure (exposed 20 seconds, 23 W fluorescent lamp, central wavelength 365 nm, distance 45 mm): 0.15
